Assay results published in patent publication US10827758B2, “Relating to water treatment” (BWA WATER ADDITIVES UK LIMITED, priority 2014, dated 2020).

Assays:
Enterobacter aerogenes = assay: Log 10 Reduction of facultative anaerobic bacterium in dosed bacterial suspension (serial dilution into anaerobic acid producing media vials); assay type: cell-based; details: TDS 30,000 mg l^-1, ppm dose per Example, 8 = complete kill
Description: (§1) A suspension of Desulfovibrio vulgaris plus Enterobacter aerogenes bacteria containing from 1×10^6 to 1×10^8 cells/mL was prepared in sterile pH 8 phosphate buffer containing varying levels of sodium chloride to give the desired total dissolved solids (TDS) concentration. Aliquots of this suspension were dosed with the indicated concentrations of the phosphonium compound (a) and stabilised halogen containing composition (b) with the concentrations being measured as ppm by weight of the stated composition in the dosed suspension. The mixtures were allowed to stand at room temperature. At the designated contact times, each mixture was sampled to determine the total number of viable cells of both Desulfovibrio vulgaris and Enterobacter aerogenes by serial 10-fold dilution into API RP 38 media vials and anaerobic acid producing media vials, respectively. The vials were incubated at 37° C. for 72 hours. Results were recorded as cells per millilitre.
(§2) Aqueous media inoculated with anaerobe and aerobe culture and having a TDS of 30,000 mg l^−1 was treated with treatment agents comprising: (i) stabilised halogen containing composition; (ii) tri n-butyl n-tetradecyl phosphonium chloride (TTPC) or (iii) a combination of stabilised halogen containing composition and TTPC.
(§3) The efficacy of the treatment agents was evaluated by measuring the Log 10 Reduction of the anaerobic bacterium Desulfovibrio vulgaris and the facultative anaerobeic bacterium Enterobacter aerogenes after contact times of 1 hour, 4 hours and 24 hours as detailed in Table 1. For TTPC the stated ppm value relates to the amount of TTPC added (active). For the stabilised bromine composition the stated ppm relates to the amount of Bromax 7.1 added (product)
(§4) A Log 10 reduction of 6 represents a complete kill for anaerobes and a Log 10 reduction of 8 represents a complete kill for facultative anaerobes.

Desulfovibrio vulgaris = assay: Log 10 Reduction of anaerobic bacterium in dosed bacterial suspension (serial dilution into API RP 38 media vials); assay type: cell-based; details: TDS 30,000 mg l^-1, ppm dose per Example, 6 = complete kill
Description: as §1, §2, §3, §4

SMILES | Log10 Reduction Facultative Anaerobes (Enterobacter aerogenes; contact time 1 hour) | Log10 Reduction Anaerobes (Desulfovibrio vulgaris; contact time 1 hour) | Log10 Reduction Facultative Anaerobes (Enterobacter aerogenes; contact time 24 hours) | Log10 Reduction Anaerobes (Desulfovibrio vulgaris; contact time 24 hours) | also measured
CCCCCCCCCCCCCC[P+](CCCC)(CCCC)CCCC.[Cl-] [Example 1, tri n-butyl n-tetradecyl phosphonium chloride] | 1 | 3 |  |  | 
CCCCCCCCCCCCCC[P+](CCCC)(CCCC)CCCC.[Cl-] [Example 2, tri n-butyl n-tetradecyl phosphonium chloride] | 4 | 6 |  |  | 
CCCCCCCCCCCCCC[P+](CCCC)(CCCC)CCCC.[Cl-] [Example 9, tri n-butyl n-tetradecyl phosphonium chloride] |  |  |  |  | Log10 Reduction Facultative Anaerobes (Enterobacter aerogenes; contact time 4 hours): 5; Log10 Reduction Anaerobes (Desulfovibrio vulgaris; contact time 4 hours): 6
CCCCCCCCCCCCCC[P+](CCCC)(CCCC)CCCC.[Cl-] [Example 17, tri n-butyl n-tetradecyl phosphonium chloride] |  |  | 5 | 6 | 
CCCCCCCCCCCCCC[P+](CCCC)(CCCC)CCCC.[Cl-] [Example 18, tri n-butyl n-tetradecyl phosphonium chloride] |  |  | 8 | 6 | 
